From patent publication US20250064781A1, “METHODS OF TREATING, AMELIORATING, AND/OR PREVENTING STRESS-RELATED DISORDER” (Yale University, priority 2021, published 2025)
“Also recorded” adds a separate entry of the source. Where a name gives a salt, the structure may show the parent alone. Read-outs that look alike come from different tables or passages of the source.

Columns and labels:
[1] = target: T1, α1A-adrenergic receptor subtype (α1A-AR) (Homo sapiens, UniProt P35348); details: Kenny et al., cited from earlier work; for pKi for α1A-AR: cloned human receptor, Br J Pharmacol. 1996; for α1-adrenoceptor subtype preference (in words): as previously reported
T1 sequence (P35348 1-466): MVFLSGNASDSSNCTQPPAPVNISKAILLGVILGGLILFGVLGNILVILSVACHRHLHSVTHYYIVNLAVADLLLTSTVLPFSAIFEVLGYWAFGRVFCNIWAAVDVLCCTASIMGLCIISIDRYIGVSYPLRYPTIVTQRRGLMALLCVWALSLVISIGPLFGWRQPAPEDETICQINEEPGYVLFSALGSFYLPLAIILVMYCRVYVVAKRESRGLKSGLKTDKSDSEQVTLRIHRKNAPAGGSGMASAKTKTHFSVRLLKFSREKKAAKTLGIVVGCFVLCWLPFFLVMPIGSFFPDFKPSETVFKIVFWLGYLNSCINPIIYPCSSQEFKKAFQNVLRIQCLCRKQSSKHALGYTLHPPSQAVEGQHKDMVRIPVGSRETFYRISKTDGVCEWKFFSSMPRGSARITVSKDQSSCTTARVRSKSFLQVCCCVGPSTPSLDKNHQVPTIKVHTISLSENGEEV

[2] = target: T2, α1D-adrenergic receptor subtype (α1D-AR) (Homo sapiens, UniProt P25100); details: cited from earlier work
T2 sequence (P25100 1-572): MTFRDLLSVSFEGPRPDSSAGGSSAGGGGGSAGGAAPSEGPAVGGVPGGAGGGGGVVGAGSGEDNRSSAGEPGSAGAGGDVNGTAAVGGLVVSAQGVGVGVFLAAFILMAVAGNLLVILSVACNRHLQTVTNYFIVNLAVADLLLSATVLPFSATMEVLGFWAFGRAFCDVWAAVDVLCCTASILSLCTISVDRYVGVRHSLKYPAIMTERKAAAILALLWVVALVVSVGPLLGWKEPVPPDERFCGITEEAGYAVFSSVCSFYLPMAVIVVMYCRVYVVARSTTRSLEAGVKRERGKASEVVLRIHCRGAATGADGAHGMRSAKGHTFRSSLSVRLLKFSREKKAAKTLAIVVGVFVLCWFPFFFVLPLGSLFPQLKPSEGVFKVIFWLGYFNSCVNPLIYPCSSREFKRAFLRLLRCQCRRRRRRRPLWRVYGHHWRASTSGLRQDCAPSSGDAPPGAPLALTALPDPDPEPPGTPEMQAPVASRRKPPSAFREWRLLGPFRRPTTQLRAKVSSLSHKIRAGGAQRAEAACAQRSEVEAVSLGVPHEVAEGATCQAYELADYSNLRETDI

[3] = target: T3, α1B-adrenergic receptor subtype (α1B-AR) (Homo sapiens, UniProt P35368); details: cited from earlier work
T3 sequence (P35368 1-520): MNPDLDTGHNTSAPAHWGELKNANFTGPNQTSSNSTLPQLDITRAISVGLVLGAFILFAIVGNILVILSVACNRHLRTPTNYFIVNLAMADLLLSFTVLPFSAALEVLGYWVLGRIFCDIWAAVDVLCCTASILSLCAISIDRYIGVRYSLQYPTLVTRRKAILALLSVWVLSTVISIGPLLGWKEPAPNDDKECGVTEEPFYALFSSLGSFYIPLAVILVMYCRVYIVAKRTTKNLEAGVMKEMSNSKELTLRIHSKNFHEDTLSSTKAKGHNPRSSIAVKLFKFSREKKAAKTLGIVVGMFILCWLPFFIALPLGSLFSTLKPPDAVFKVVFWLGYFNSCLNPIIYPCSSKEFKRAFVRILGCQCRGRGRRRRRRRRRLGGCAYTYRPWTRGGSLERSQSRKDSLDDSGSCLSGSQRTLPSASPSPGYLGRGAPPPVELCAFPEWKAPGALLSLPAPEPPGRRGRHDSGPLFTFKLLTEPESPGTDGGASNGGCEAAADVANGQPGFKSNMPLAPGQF

[4] = tested on: rhesus monkeys performing a spatial working memory task; experiment: spatial working memory task (oculomotor delayed response, ODR) in monkeys exposed to stress; type: in vivo, Rhesus monkeys (Macaca mulatta); details: for performance (percent correct) in spatial working memory task under stress / performance in spatial working memory task under stress: versus VEH+STRESS; for effect on stress-induced prefrontal deficits: rhesus monkeys, dose not stated; for performance in spatial working memory task under stress: FIGS. 3 and 4, 0.1 mg/kg pretreatment before the stressor
Procedure: Rhesus monkeys (Macaca mulatta) exposed to stress or vehicle and administered with RS17053 (“RS17”) or vehicle (“VEH”) (FIG. 1) or administered with silodosin (“SIL”) or vehicle (“VEH”) were subjected to the oculomotor delayed response (ODR) tasks similar to those as described previously (Datta et al., J Neurosci. 2019 Apr. 3;39(14):2722-2734, the entirety of the journal article is hereby incorporated herein by reference). Specifically, the experiments were performed as the follows:
The monkeys were seated in primate chairs with their heads fixed and faced a 27-inch computer monitor 30 inches in front of them. The monkeys' eye positions were monitored with the ISCAN Eye Movement Monitoring System. The monkeys were pretrained on the visuospatial ODRtask, which required the subject to make a memory-guided saccade to a remembered visuospatial target. The ODR task was generated by the PICTO system (custom-designed, Windows-based data acquisition software). A central small white circle was illuminated on the computer monitor, which served as the fixation target. To initiate a trial, the animal fixated this central target and maintained fixation for 0.5 s (fixation period), whereupon a cue (the same sized white circle) was illuminated for a period of 0.5 s (cue period) at 1 of 8 peripheral targets located at an eccentricity of 13° with respect to the fixation spot. After the cue was extinguished, a 2.5 s delay period followed. The subject was required to maintain central fixation throughout both the cue presentation and the delay period. At the end of the delay, the fixation spot was extinguished, which instructed the monkey to make a memory-guided saccade to the location where the cue had been shown before the delay period. A trial was considered successful if the subject's response was completed within 0.5 s of the offset of the fixation spot and was within 2° around the correct cue location. The subject was rewarded with fruit juice immediately after every successful response. The position of the stimulus was randomized over trials such that it had to be remembered on a triα1-by-trial basis. The intertrial intervals (ITIs) were at least 3 s. The subject performed 1000-1500 trials per session.

[5] = target: T1, α1A-adrenergic receptor subtype (α1A-AR); details: concluded from the Kenny et al. pKi values
[6] = cloned human receptor, Kenny et al., Br J Pharmacol. 1996
[7] = Williams et al. Br J Pharmacol. 1999
[8] = CHMP assessment report for Silodyx

| Compound | pKi for α1A-AR [1] | pKi for α1D-AR [2, 6] | α1-adrenoceptor subtype preference (in words) [1] | pKi for α1B-AR [3, 6] | effect on stress-induced prefrontal deficits [4] | performance in spatial working memory task under stress [4] | other results |
| --- | --- | --- | --- | --- | --- | --- | --- |
| 1-(4-amino-6,7-dimethoxy-2-quinazolinyl)-4-[[2-methoxy-6-(1-methylethyl)phenoxy]acetyl]piperazine [Rec 15/2739] | 9.0±0.07 | 8.6±0.07 |  |  |  |  |  |
| CC(C)(Cc1c[nH]c2ccc(Cl)cc12)NCCOc1ccccc1OCC1CC1 [RS17053, N-[2-(2-cyclopropylmethoxyphenoxy)ethyl]-5-chloro-α,α-dimethyl-1H-indole-3-ethanamine] | 8.6±0.09 | 7.1±0.09 | strong preference for α1A-AR | 7.3±0.09 | completely blocked the stress-induced prefrontal deficits |  | performance (percent correct) in spatial working memory task under stress ([4]; FIG. 1, pretreatment 0.1 mg/kg-1 mg/kg before the stressor): protected from stress exposure; performance (percent correct) in spatial working memory task under stress ([4]; FIG. 2, low dose 0.01 mg/kg pretreatment before the stressor): blocked the stress-induced prefrontal deficits; also recorded: protected from stress exposure; effect on spatial working memory performance without stress ([4]; monkeys not subjected to stress, VEH+VEH vs. RS17+VEH): no significant effect |
| Cc1c[nH]c(=O)n(CCCN2CCN(c3ccccc3OCC(F)(F)F)CC2)c1=O [RS 100329 hydrochloride, 5-Methyl-3-[3-[3-[4-[2-(2,2,2,-trifluroethoxy)phenyl]-1-piperazinyl]propyl]-2,4-(1H,3H)-pyrimidinedione hydrochloride] |  |  |  |  |  |  | selectivity for α1A-AR over α1B-AR [3, 7]: 126 fold; selectivity for α1A-AR over α1D-AR [2, 7]: 50 fold |
| COc1cc2nc(N3CCN(C(=O)C4COc5ccccc5O4)CC3)nc(N)c2cc1OC (centres unmarked) [doxazosin] |  |  |  |  |  |  | α1-adrenoceptor subtype preference (in words) [5]: has a preference for the α1B subtype, rather than the α1A subtype |
| C[C@H](Cc1cc2c(c(C(N)=O)c1)N(CCCO)CC2)NCCOc1ccccc1OCC(F)(F)F [silodosin] |  |  |  |  | completely blocked the stress-induced prefrontal deficits | protected from stress exposure | pKi for α1B-AR [3, 8]: 8.19; pKi for α1D-AR [2, 8]: 8.66 |
| CCOc1ccccc1OCCNC(C)Cc1ccc(OC)c(S(N)(=O)=O)c1 (centres unmarked) [tamsulosin, 5-(2-{[2-(2-Ethoxyphenoxy)ethyl]amino}propyl)-2-methoxybenzene-1-sulfonamide] |  | 8.1±0.04 | preference for α1A-AR and α1D-AR over α1B-AR | 7.0±0.08 | effective for treating disorders consequent of stress | protected from stress exposure | effect on stress-induced prefrontal deficits ([4]; listed as tamulosin): completely blocked the stress-induced prefrontal deficits |
